Results: US20160194274A1, “PHENANTHRENE DERIVATIVES FOR USE AS MEDICAMENTS” (VALENTIA BIOPHARMA, priority 2012, published 2016)

Assays:
FAM-(CUG)10 RNA = test: Gel retardation assay (fluorescence EMSA) with FAM-(CUG)10; format: binding
Procedure: FIG. 6. Study of the binding of some compounds of Formula I (VLT002, VLT025 and VLT026) to FAM-(CUG)10 (repeat tract present in DM1, HDL2, SCA8 diseases) by means of gel retardation assays.
Fluorescence Electrophoretic Mobility Shift Assay to test RNA-compound binding. Briefly, an aliquot of carboxyfluorescein (FAM)-CUG10 RNA (DM1, HDL2, SCA8; see FIG. 6) was heated at 70° C. for 5 min and diluted to 300 nM. The binding reaction with compounds was then carried out as described in (Garcia-Lopez A et al. Proc. Natl. Acad. Sci. USA. 108(29):11866-71 (2011)). The reaction mix was loaded onto 8% polyacrylamide nondenaturing gels, and electrophoresis was conducted at 4° C. in TB 1× for approximately 30 min at 240V, followed by fluorescence visualization. Quantification of the free RNA band intensity was carried out using the ImageJ software. A non-linear regression analysis was used to calculate EC50, based on a total of three experimental replicates. Same approach was developed with (FAM)-CCUG8 (DM2), CAG10 (SCA3), CGG10 (FXTAS), GGGGCC5 (ALS/FSD), UGGAA6 (SCA31) probes (see FIG. 9).

(CUG)23 RNA hairpin = test: 2-Aminopurine fluorescence assay of hairpin RNA unfolding; format: biochemical; settings: for modification of the hairpin loops formed by the CUG repeats (2-AP fluorescence): (CUG)23 RNA, dose-range
Procedure: FIG. 7. […] Measurements of the fluorescence emitted (Y-axis), measured as relative fluorescence units (RFU), by 2-aminopurine in a (CUG)23 RNA (1 μM) in the presence of different compounds (dose-range approach), relative to the fluorescence emitted by the free RNA. […] These effects were not observed when incubating the RNA with DMSO (not shown), or with the small molecule pentamidine, published as a compound able to disrupt MBNL1 binding to CUG hairpins (Warf M B et al. Proc. Natl. Acad. Sci. USA 106:18551-56 (2009)). * indicates p-value <0.05 ** p-value <0.005 *** p-value p<0.0005.
Aminopurine Fluorescence assay to detect hairpin double strand RNA unfolding. An aliquot of 2-aminopurine (2AP)-CUG23 RNA (1 μM in binding buffer) was heated at 90° C. for 3 min, placed on ice, and further diluted to 30 nM in a final volume of 1 mL in binding buffer.

[1] = test system: ribonuclear foci in MyoD transformed fibroblasts derived from DM1 patients (>300 CTG repeats); test: FISH detection of aberrant ribonuclear foci in human DM1 fibroblasts; format: cell-based; settings: 24 h treatment, vs no treatment
Procedure: FIG. 1. Quantification of aberrant ribonuclear foci (DM1 disease hallmark) in human DM1 fibroblasts. Treatments with the compounds of Formula I were performed (VLT002, VLT015, VLT025, VLT024, VLT042, VLT040, VLT023, VLT026, VLT048, VLT045, VLT043, VLT049, VLT051 VLT053 and VLT056). (A) Number (medium) of foci/nuclei (No treatment vs. compound treatment). (B) Number of cells without foci (No treatment vs. compound treatment). n=100 minimum number of cells counted. T-Student test: * indicates p-value <0.05 ** p-value p<0.005 *** p-value p<0.0005.
After screening identification of the compounds of the invention (see FIG. 10), main validation was done using Fluorescence In Situ Hybridization (FISH) detection of aberrant aggregation of ribonuclear foci in cell lines from DM1 patients (see FIG. 1) and in DM1 Drosophila model (see FIG. 2) (Garcia-Lopez et al., Proc. Natl. Acad. Sci. USA. 108(29):11866-71 (2011)). Briefly, regarding human cells, it was used MyoD transformed fibroblasts derived from clinically diagnosed DM1 patients (>300 CTG repeats) routinely growing in DMEM supplemented with 10% heat-inactivated fetal bovine serum and maintained at 37° C. in a humidified incubator containing 5% CO2. To detect ribonuclear foci, cells were cultured over cover-slides in flat bottomed 24-well plates, after 24 h compounds of the invention were added to the cells at desiderate concentration, 24 h later in situ hybridization was done by fixing with 4% paraformaldehyde (PFA) 15 min at room temperature, and washed and stored in 70% ethanol. Cells were rehydrated with PBS and pre-hybridized 10 min at room temperature with a pre-hybridization buffer (formamide 30%, 2× saline-sodium citrate buffer (SSC)). Hybridization was performed in a light-proof wet chamber using the same pre-hybridization buffer supplemented with 0.02% bovine serum albumin (BSA), 1 mg/ml yeast tRNA (Sigma), 2 mM sodium (meta)vanadate, 1 mg/ml sperm DNA, 10% dextran sulfate and 1 ng/μl RNase free HPCL-purified Cy3-labeled (CAG)10 RNA. After hybridization cells were washed 2×15 minutes at 45° C. with the pre-hybridization buffer and washed with 1×PBS at room temperature. Slides were mounted with Vectashield solution with DAPI and number of foci by cell and number of cells with/without foci (see FIG. 1) were counted in a minimum of 100 cells for each treatment and concentration tested with a 63× objective in a Leica microscope. Same FISH approach was performed in Drosophila DM1 flies, where thoraces were embedded in OCT and transversal sections were taken with a Leica CM 15105 cryomicrotome. Sections were processed for in situ hybridization and counting for number of foci by cell with the same Cy3-labeled (CAG)10 probe (see FIG. 2).

## CN(C)CCc1cc2c(c3c1ccc1ccccc13)OCO2 [VLT002, Stephenanthrine]
FAM-(CUG)10 RNA
  binding to FAM-CUG10: bind to FAM-CUG10
(CUG)23 RNA hairpin
  modification of the hairpin loops formed by the CUG repeats (2-AP fluorescence): modify the hairpin loops
[1]
  aberrant ribonuclear foci: number of foci/nuclei (A) and/or number of cells without foci (B): significant reduction

## C[N+](C)(C)CCc1cc2c(c3c1ccc1ccccc13)OCO2 [VLT025]
FAM-(CUG)10 RNA
  binding to FAM-CUG10: bind to FAM-CUG10
(CUG)23 RNA hairpin
  modification of the hairpin loops formed by the CUG repeats (2-AP fluorescence): modify the hairpin loops
(CUG)23 RNA hairpin; change to more structured double-stranded
  decreases in the fluorescence of 2-AP: noteworthy decreases
[1]
  aberrant ribonuclear foci: number of foci/nuclei (A) and/or number of cells without foci (B): significant reduction
